Results taken from US9439426B2, “Active compound combinations comprising carboxamide derivatives and a biological control agent” (BAYER CROPSCIENCE AG, priority 2012, dated 2016).

Legend:
Pyrenophora teres = assay: Pyrenophora teres-test (barley)/preventive; format: in vivo; details: preventive, 30 ppm a.i., evaluated 8 days after inoculation
Method: (§1) The commercially available compounds SERENADE-MAX®, SONATA®, active compounds (1 part by weight) solved in N,N-dimethylacetamide (49 parts by weight) and alkylaryl polyglycol ether (1 part by weight), or combinations thereof were diluted with water to the desired concentration.
(§2) To test for preventive activity, young plants are sprayed with the preparation of active compound or active compound combination at the stated rate of application.
After the spray coating has been dried, the plants are sprayed with a spore suspension of Pyrenophora teres. The plants remain for 48 hours in an incubation cabinet at approximately 20° C. and a relative atmospheric humidity of approximately 100%.
(§3) The plants are placed in the greenhouse at a temperature of approximately 20° C. and a relative atmospheric humidity of approximately 80%.
(§4) The test is evaluated 8 days after the inoculation. 0% means an efficacy which corresponds to that of the untreated control, while an efficacy of 100% means that no disease is observed.

Septoria tritici = assay: Septoria tritici-test (wheat)/preventive; format: in vivo; details: preventive, 30 ppm a.i., evaluated 21 days after inoculation
Method: as §1, §2
After the spray coating has been dried, the plants are sprayed with a spore suspension of Septoria tritici. The plants remain for 48 hours in an incubation cabinet at approximately 20° C. and a relative atmospheric humidity of approximately 100% and afterwards for 60 hours at approximately 15° C. in a translucent incubation cabinet at a relative atmospheric humidity of approximately 100%.
The plants are placed in the greenhouse at a temperature of approximately 15° C. and a relative atmospheric humidity of approximately 80%.
The test is evaluated 21 days after the inoculation. 0% means an efficacy which corresponds to that of the untreated control, while an efficacy of 100% means that no disease is observed.

Puccinia triticina = assay: Puccinia triticina-test (wheat)/preventive; format: in vivo; details: preventive, 30 ppm a.i., evaluated 8 days after inoculation
Method: as §1, §2
After the spray coating has been dried, the plants are sprayed with a spore suspension of Puccinia triticina. The plants remain for 48 hours in an incubation cabinet at approximately 20° C. and a relative atmospheric humidity of approximately 100%.
as §3, §4

[1] = log P by HPLC on reversed-phase column (C 18), EEC Directive 79/831 Annex V.A8; format: physicochemical; details: reversed-phase HPLC column (C 18), 40° C., 0.1% aqueous formic acid and acetonitrile
Method: In table 1, the log P values were determined in accordance with EEC Directive 79/831 Annex V.A8 by HPLC (High Performance Liquid Chromatography) on a reversed-phase column (C 18), using the method described below:
Temperature: 40° C.; Mobile phases: 0.1% aqueous formic acid and acetonitrile; linear gradient from 10% acetonitrile to 90% acetonitrile.
Calibration was carried out using unbranched alkan-2-ones (comprising 3 to 16 carbon atoms) with known log P values (determination of the log P values by the retention times using linear interpolation between two successive alkanones). lambda-max-values were determined using UV-spectra from 200 nm to 400 nm and the peak values of the chromatographic signals.

Row | SMILES | Efficacy in % found (Pyrenophora teres) [%] | Efficacy in % found (Septoria tritici) [%] | Efficacy in % found (Puccinia triticina) [%] | chromatographic logP [1]
1 | CC(C)c1ccc(Cl)cc1CN(C(=O)c1c(C(F)F)nn(C)c1F)C1CC1 [A5, N-(5-chloro-2-isopropylbenzyl)-N-cyclopropyl-3-(difluoromethyl)-5-fluoro-1-methyl-1H-pyrazole-4-carboxamide] | 78 | 60 | 67 | –
2 | CC(C)c1ccccc1CN(C(=S)c1c(C(F)F)nn(C)c1F)C1CC1 [A20, N-cyclopropyl-3-(difluoromethyl)-5-fluoro-N-(2-isopropylbenzyl)-1-methyl-1H-pyrazole-4-carbothioamide] | – | – | – | 4.36
